Assay results published in patent US5997933A, “N-(3,3-dimethylbutyl)-L-aspartyl-D-α-aminoalkanoic acid N-(S)-1-phenyl-1-alkanamide useful as a sweetening agent” (priority 1996, dated 1999).
Residues, ends and D or L forms follow the SMILES beside them.

What was measured:
[1] = Sweetening potency: taste comparison of aqueous solutions with sucrose control solution (2%, 5% or 10%) by a group of eight experienced people; assay type: in vivo
Excerpt: The sweetening potency of the compounds described in the examples has been evaluated by a group of eight experienced people. For this, the compound, in aqueous solution at varying concentrations, is compared, with respect to taste, to a control solution of sucrose of concentration 2%, 5%, or 10%. The sweetening potency of the test compound compared with sucrose then corresponds to the weight ratio between the compound and sucrose for equal sweetening intensity, i.e. when the sweet tastes of the solution of the test compound and the control solution of sucrose are considered by a majority of people to have the same sweetening intensity.

[2] = Sweetening comparison with aspartame (equivalent sweetness of solutions / soft drink); assay type: in vivo; settings: for concentration of aqueous solution of equivalent sweetening potency: 20 mg/L compound equivalent to 550 mg/L aspartame; for quantity of sweetening agent in one liter of soft drink for replacement: identical organoleptic qualities
Experimental: From the fact of their high sweetening potency, another advantage of the compounds of the invention compared to aspartame is to allow, in their application to food products, the use of very low quantities of active agent. It is therefore for example that it is possible to replace, in one liter of soft drink, 550 mg of aspartame by about 20 mg of the N-(3,3-dimethylbutyl)-L-aspartyl-D-α-aminobutyric acid N--(S)-1-phenyl-1-propanamide of the invention, and to therefore reduce by about 27 times the quantities of sweetening agent consumed, always in maintaining the identical organoleptic qualities.

[3] = Accelerated ageing in neutral medium (phosphate buffer pH 7, 70° C.), HPLC of product remaining; assay type: physicochemical; settings: for half-life: phosphate buffer, read-out: half-life (time corresponding to 50% degradation) (converted)
Experimental: (§1) The stability of the compounds of the invention and aspartame was measured by determining, using high performance liquid chromatography (HPLC), the amount of product remaining after an accelerated ageing in acidic medium (phosphate buffer at pH 3) or in neutral medium (phosphate buffer at pH 7) and at the temperature of 70° C. The stability of the compound thus tested is evaluated by its half-life (time corresponding to 50% degradation).
Given in the annexed FIG. 2 is a comparative diagram of the stability curves of aspartame (curve 1) and of the N-(3,3-dimethylbutyl)-L-aspartyl-D-α-aminobutyric acid N--(S)-1-phenyl-1-propanamide of the invention (curve 2) obtained during an accelerated ageing by heating their solutions in neutral media of pH 7 at 70° C.

[4] = Accelerated ageing in acidic medium (phosphate buffer pH 3, 70° C.), HPLC of product remaining; assay type: physicochemical; settings: aqueous solution, read-out: half-life (time corresponding to 50% degradation) (converted)
Experimental: as §1
Given in the annexed FIG. 1 is a comparative diagram of the stability curves of aspartame (curve 1) and of the N--(3,3-dimethylbutyl)-L-aspartyl-D-α-aminobutyric acid N--(S)-1-phenyl-1-propanamide of the present invention (curve 2) obtained during an accelerated ageing by heating their solutions in acidic medium at pH 3 (phosphate buffer) at 70° C.

[5] = cited from earlier work
[6] = with respect to a 2% sucrose solution

## CC[C@H](NC(=O)[C@H](NC(=O)[C@H](CC(=O)O)NCCC(C)(C)C)C(C)C)c1ccccc1 [N-(3,3-dimethylbutyl)-L-aspartyl-D-valine N--(S)-1-phenyl-1-propanamide]
[1]; [6]
  Sweetening potency: about 3,000 times that of sucrose on a weight basis
[1]; with respect to a 2% sucrose solution, listed as Y = (CH3)2 CH, R" = (S) CH(C2 H5) C6 H5
  Sweetening potency: 3,000 times that of sucrose on a wei

## COC[C@H](NC(=O)[C@H](NC(=O)[C@H](CC(=O)O)NCCC(C)(C)C)C(C)C)c1ccccc1 [N-(3,3-dimethylbutyl)-L-aspartyl-D-valine N--(S)-1-phenyl-2-methoxy-1-ethanamide]
[1]; [6]
  Sweetening potency: about 4,000 times that of sucrose on a weight basis
[1]; with respect to a 2% sucrose solution, listed as Y = (CH3)2 CH, R" = (R) CH(CH2 OCH3)C6 H5
  Sweetening potency: 4,000 times that of sucrose on a wei

## CC[C@H](NC(=O)[C@@H](CC)NC(=O)[C@H](CC(=O)O)NCCC(C)(C)C)c1ccccc1 [N-(3,3-dimethylbutyl)-L-aspartyl-D-α-aminobutyric acid N--(S)-1-phenyl-1-propanamide]
[2]
  concentration of aqueous solution of equivalent sweetening potency: 20 µg/mL
  quantity of sweetening agent in one liter of soft drink for replacement: about 20 mg
[2]; 20 mg/L of compound vs 550 mg/L of aspartame, aqueous solution
  sweetening potency compared with aspartame: about 27 times
[2]; soft drink, vs aspartame
  reduction of quantity of sweetening agent consumed vs aspartame: about 27 times
[1]; by comparison with a 5% solution of sucrose
  Sweetening potency: ~6,000 times that of sucrose on a wei
[1]; by comparison with a 10% solution of sucrose
  Sweetening potency: ~5,000 times that of sucrose on a wei
[1]; with respect to a 2% sucrose solution, listed as Y = C2 H5, R" = (S) CH(C2 H5) C6 H5
  Sweetening potency: 8,000 times that of sucrose on a wei
[3]; pH 7, 70° C., ratio to aspartame
  stability compared with aspartame: about 1,700 times
[3]; pH 7, 70° C.
  half-life: ~288 h
[4]
  half-life: ~72 h

## CC[C@@H](NC(=O)[C@H](CC(=O)O)NCCC(C)(C)C)C(=O)N[C@@H](COC)c1ccccc1 [N-(3,3-dimethylbutyl)-L-aspartyl-D-α-aminobutyric acid N--(S)-1-phenyl-2-methoxy-1-ethanamide]
[1]; [6]
  Sweetening potency: about 4,000 times that of sucrose on a weight basis
[1]; with respect to a 2% sucrose solution, listed as Y = C2 H5, R" = (R) CH(CH2 OCH3)C6 H5
  Sweetening potency: 4,000 times that of sucrose on a wei

## C[C@@H](NC(=O)[C@H](CC(=O)O)NCCC(C)(C)C)C(=O)NC(C1CC1)C1CC1 [N-(3,3-dimethylbutyl)-L-aspartyl-N-(dicyclopropylcarbinyl)-D-alaninamide]
[5]; [6]
  sweetening potency (prior art, FR 92 13615): 2,500 times that of sucrose on a weight basis

## CC[C@@H](NC(=O)[C@H](CC(=O)O)NCCC(C)(C)C)C(=O)N[C@@H](C)c1ccccc1 [Y = C2 H5, R" = (S) CH(CH3)C6 H5]
[1]; [6]
  Sweetening potency: 2,000 times that of sucrose on a wei

## COC(=O)[C@H](Cc1ccccc1)NC(=O)[C@@H](N)CC(=O)O [aspartame, L-aspartyl-L-phenylalanine methyl ester, reference compound] (HELM PEPTIDE1{D.F.[CO[*:1]]}$$$$V2.0)
[2]
  concentration of aqueous solution of equivalent sweetening potency: 550 µg/mL
  quantity of sweetening agent in one liter of soft drink for replacement: 550 mg
[3]; neutral solution, pH about 7
  stability in neutral solution: very little stable
[3]; pH 7, 70° C.
  half-life: 0.167 h
[5]; aspartame, background, sucrose concentration not stated
  sweetening potency (prior art): 120 to 180 times that of sucrose on a weight basis
[4]
  half-life: ~24 h
